Assays:
[1] = Pharmacokinetics in B6 mice after oral gavage; conditions: B6 mice, single oral dose 40 mg/kg, plasma
Text: Pharmacokinetics. […] Fan et al., “Contributions of Hepatic and Intestinal Metabolism to the Disposition of Niclosamide, a Repurposed Drug with Poor Bioavailability,” Drug Metab. Dispos. 47:756-763 (2019), which is hereby incorporated by reference in its entirety. […] Student's t-test was used. P values<0.05 were considered statistically significant.

[2] = Repeated oral dosing toxicity in mice; format: in vivo, mouse; conditions: repeated oral dosing 40 mg/kg/day for 7 days
ZIKV PRVABC59 = test: ZIKV viremia mouse model (A129 mice); format: in vivo; conditions: 20 mg/kg/day oral gavage, day 3 post-infection, vs vehicle
Experimental: In vivo protection efficacy. All animal studies involving infectious ZIKV were conducted at an Animal Biosafety Level 2 (ABSL-2) facility at the Wadsworth Center with Institutional Biosafety and Animal Welfare Committee approval.
A group of four-week-old A129 mice were infected by subcutaneous injection with 1.7×10^5 PFU of the PRVABC59 strain. […] Mice were observed daily for signs of illness and mortality. Viremia on day 3 post-infection (pi) was determined by plaque forming assay, and statistical analysis was performed using the unpaired, two-tailed t-test (Prism).
Finally, the in vivo antiviral efficacy was evaluated using a viremia mouse model, as described previously. Zhang et al., “Characterization of the Contemporary Zika Virus in Immunocompetent Mice,” Hum. Vaccines Immunother. 12:3107-3109 (2016) and Larocca et al., “Vaccine Protection Against Zika Virus From Brazil,” Nature 536:474-478 (2016), both of which are hereby incorporated by reference in their entirety.

ZIKV [3] = test: Time of addition experiment; format: cell-based, Zika virus; conditions: 0.75 μM added post-infection, titers at 48 hrs
Experimental: FIGS. 6A-6C show mechanism of action studies. […] Viral titers were quantified using plaque forming assay 48 hrs post-infection. DMSO was added to control. N=3. ***, p<0.001. […] N=3. […] Right, Band intensities of PP and NS3 normalized to the GAPDH control (N=3). […] Li et al., “Existing Drugs as Broad-Spectrum and Potent Inhibitors for Zika Virus by Targeting NS2B-NS3 Interaction,” Cell Res. 27:1046-1064 (2017), which is hereby incorporated by reference in its entirety. At 48 hrs post-infection, cells were washed, harvested, and protected by protease inhibitor cocktail prior to lysis by SDS-PAGE loading buffer. Upon incubation at 95° C. for 10 min, sample was subjected to Western blot analysis with anti-ZIKV NS3 (GTX133309, GeneTex, Inc.) and anti-GAPDH (CB1001, EMD Millipore) as primary antibodies. Error bars in all panels represent the standard deviations at each condition.
Antiviral inhibitors are generally divided into two categories, entry and post-entry (replication), respectively.

ZIKV [4] = test: Immunofluorescence assay of viral protein production in A549 cells; format: cell-based, Zika virus; conditions: IFA with anti-E 4G2
Experimental: Immunofluorescence Assay. The immunofluorescence assay was performed using ZIKV-infected cells treated with DMSO or JMX0207, as described previously. Li et al., “Existing Drugs as Broad-Spectrum and Potent Inhibitors for Zika Virus by Targeting NS2B-NS3 Interaction,” Cell Res. 27:1046-1064 (2017); Li et al., “Erythrosin B is a Potent and Broad-Spectrum Orthosteric Inhibitor of the Flavivirus NS2B-NS3 Protease,” Antiviral Res. 150:217-225 (2018), which are hereby incorporated in their entirety. A mouse monoclonal pan anti-E antibody 4G2 (ATCC) and a DyLight® 488 goat anti-mouse IgG (ImmunoReagents, Inc.) were used to monitor viral E protein expression, as described previously. Li et al., “Existing Drugs as Broad-Spectrum and Potent Inhibitors for Zika Virus by Targeting NS2B-NS3 Interaction,” Cell Res. 27:1046-1064 (2017); Li et al., “Erythrosin B is a Potent and Broad-Spectrum Orthosteric Inhibitor of the Flavivirus NS2B-NS3 Protease,” Antiviral Res. 150:217-225 (2018), which are hereby incorporated in their entirety.

ZIKV [5] = test: ZIKV inhibition in human neural progenitor cells (IFA, qRT-PCR); format: cell-based, Zika virus; conditions: HNPC
Text: Viral Titer Reduction Assay. A viral titer reduction assay was used to determine the compounds' effect on DENV2 and ZIKV strains, as described previously. Li et al., “Existing Drugs as Broad-Spectrum and Potent Inhibitors for Zika Virus by Targeting NS2B-NS3 Interaction,” Cell Res. 27:1046-1064 (2017) and Li et al., “Erythrosin B is a Potent and Broad-Spectrum Orthosteric Inhibitor of the Flavivirus NS2B-NS3 Protease,” Antiviral Res. 150:217-225 (2018), which are hereby incorporated by reference in their entirety. Human A549 lung carcinoma cells and human primary neural progenitor cells were used, as described previously. Li et al., “Erythrosin B is a Potent and Broad-Spectrum Orthosteric Inhibitor of the Flavivirus NS2B-NS3 Protease,” Antiviral Res. 150:217-225 (2018); Brecher et al., “A Conformational Switch High-Throughput Screening Assay and Allosteric Inhibition of the Flavivirus NS2B-NS3 Protease,” PLoS Pathog. 13:e1006411 (2017), which are hereby incorporated by reference in their entirety. All experiments were performed in triplicates.
Immunofluorescence Assay. The immunofluorescence assay was performed using ZIKV-infected cells treated with DMSO or JMX0207, as described previously. […]
Quantitative qRT-PCR. Quantitative qRT-PCR was performed as described previously. […] The 2-ΔΔCT (“delta-delta Ct”) method was used to quantify samples. […]

SMILES: O=C(Nc1ccc([N+](=O)[O-])cc1Cl)c1cccc([N+](=O)[O-])c1O [JMX0207, N-(2-Chloro-4-nitrophenyl)-2-hydroxy-3-nitrobenzamide]
- AUC0→∞ ± S.D. [1]: 2719 ± 1018
- Tmax ± S.D. [1]: 1.2 ± 0.5 h
- T1/2 ± S.D. ([1]; 40 mg/kg): 11 ± 6.8 h
- Cmax ([1]; read-out: Cmax ± S.D.): 145 µM
- sign of toxicity [2]: did not display any sign of toxicity
- ZIKV-induced viremia (ZIKV PRVABC59): significant reduction in ZIKV-induced viremia
- logP (LogP): 2.72
- reduction of ZIKV titer by time of addition (ZIKV [3]): equally effective in reducing ZIKV titer even at 24 hrs post-infection
- ZIKV antigen production (ZIKV [4]): greatly reduced ZIKV antigen production in A549 cells in a dose-dependent manner
- ZIKV protein expression and RNA synthesis (ZIKV [5]): effectively inhibited ZIKV protein expression and RNA synthesis in HNPC in dose-dependent manner

From US11767303B2, “Compounds and methods for inhibiting viral replication and methods of treating and preventing flaviviral infections” (priority 2020, dated 2023)
